The structures appear in SMILES notation.

One may read the EC50 as the concentration at which the effect is half-maximal.

For this assay, the target named is T1, GST-RIPK1 (recombinant GST-RIPK1 kinase domain (residues 1-327)) (Homo sapiens, UniProt Q13546).
T1 construct: recombinant GST-RIPK1 kinase domain (residues 1-327) enzyme produced from baculovirus-transfected Sf21 cells; host or cells: baculovirus-transfected Sf21 insect cells
T1 sequence (Q13546 1-327): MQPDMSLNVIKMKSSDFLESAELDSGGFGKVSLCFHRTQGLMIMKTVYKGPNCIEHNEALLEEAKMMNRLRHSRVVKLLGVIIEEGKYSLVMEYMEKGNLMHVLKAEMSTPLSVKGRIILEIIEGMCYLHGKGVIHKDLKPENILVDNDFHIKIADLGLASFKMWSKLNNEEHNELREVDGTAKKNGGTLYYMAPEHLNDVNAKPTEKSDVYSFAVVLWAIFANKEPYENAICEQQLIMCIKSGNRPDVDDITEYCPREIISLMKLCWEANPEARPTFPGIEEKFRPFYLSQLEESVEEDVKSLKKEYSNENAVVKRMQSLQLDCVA
Put plainly: RIPK1-ADP-Glo Enzymatic Assay. It counts as biochemical. The note with it: ten-point titration, top compound concentration of 100000 nM; 25 nM GST-RIPK1, 300 μM ATP, 3 μM dephosphorylated-MBP; 30 min pre-incubation, 150 min reaction. In a few lines:
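ADP-Glo luminescence quantifies ADP formed over 150 minutes by 25 nM Sf21-produced GST-RIPK1 (1-327) using 300 μM ATP and 3 μM dephosphorylated MBP, following 30-minute compound preincubation at 1% DMSO. Ten-point 1:3 series from 100000 nM gave EC50 via four-parameter sigmoidal regression.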
A general note: In ADP-Glo the light output rises with the ADP produced.

Consider `O=C1N2[C@@H](CC[C@H]2c2cc(F)cc(F)c2)O[C@]12C[C@H](Oc1ncnc3sccc13)C2` [Example 9.30, (1r,3R,5′S,7a′R)-5′-(3,5-difluorophenyl)-3-[(thieno[2,3-d]pyrimidin-4-yl)oxy]tetrahydro-3′H-spiro[cyclobutane-1,2′-pyrrolo[2,1-b][1,3]oxazol]-3′-one], for which the concentration giving a half-maximal response (EC50) was 9 nM.

In the case of `CCc1nnc(-c2ccc(COC3CC4(C3)OC3CC[C@@H](c5cnccn5)N3C4=O)cc2)o1` (stereo partly drawn) [Example 18.105, (5′S)-3-{[4-(5-ethyl-1,3,4-oxadiazol-2-yl)phenyl]methoxy}-5′-(pyrazin-2-yl)tetrahydro-3′H-spiro[cyclobutane-1,2′-pyrrolo[2,1-b][1,3]oxazol]-3′-one], the concentration for a half-maximal effect (EC50) amounted to 66 nM.

For the molecule `N#CC1(c2ccc(COC3CC4(C3)OC3CC[C@@H](c5cnccn5)N3C4=O)c(Cl)c2)CC1` (stereo partly drawn) [Example 18.79, 1-[3-chloro-4-({[(5′S)-3′-oxo-5′-(pyrazin-2-yl)tetrahydro-3′H-spiro[cyclobutane-1,2′-pyrrolo[2,1-b][1,3]oxazol]-3-yl]oxy}methyl)phenyl]cyclopropane-1-carbonitrile], the EC50 came out at 20 nM.

On to `CC1(Oc2cc(C(N)=O)ncn2)CC2(C1)O[C@@H]1CC[C@@H](c3cc(F)cc(F)c3)N1C2=O` (stereo partly drawn) [Example 5.2, 6-(((5′S,7a′R)-5′-(3,5-difluorophenyl)-3-methyl-3′-oxotetrahydro-3′H-spiro[cyclobutane-1,2′-pyrrolo[2,1-b]oxazol]-3-yl)oxy)pyrimidine-4-carboxamide], for which the EC50 came out at 121 nM.

On to `O=C1N2[C@@H](CC[C@H]2c2cnccn2)O[C@]12C[C@H](OCc1ccccc1)C2` [Example 4.1, ((1r),3R,5′S,7a′R)-3-(benzyloxy)-5′-(pyrazin-2-yl)tetrahydro-3′H-spiro[cyclobutane-1,2′-pyrrolo[2,1-b]oxazol]-3′-one], for which the EC50 was 49 nM.

Regarding `NC(=O)c1ccnc(O[C@H]2C[C@@]3(C2)O[C@@H]2CC[C@@H](c4cc(F)cc(F)c4)N2C3=O)c1` [Example 10.2, 2-(((1r,3R,5′S,7a′R)-5′-(3,5-difluorophenyl)-3′-oxotetrahydro-3′H-spiro[cyclobutane-1,2′-pyrrolo[2,1-b]oxazol]-3-yl)oxy)isonicotinamide], the EC50 came to 18 nM.

For `O=C1N2C(CC[C@H]2c2cnccn2)OC12CC(OCc1ccc3scnc3c1)C2` (stereo partly drawn) [Example 18.61, (5′S)-3-[(1,3-benzothiazol-5-yl)methoxy]-5′-(pyrazin-2-yl)tetrahydro-3′H-spiro[cyclobutane-1,2′-pyrrolo[2,1-b][1,3]oxazol]-3′-one], the EC50 turned out to be 37 nM.

Turning to `O=C1N2[C@@H](CC[C@H]2c2cnccn2)OC12CC(Oc1cnccn1)C2` (stereo partly drawn) [Example 9.66, (5′S,7a′R)-5′-(pyrazin-2-yl)-3-[(pyrazin-2-yl)oxy]tetrahydro-3′H-spiro[cyclobutane-1,2′-pyrrolo[2,1-b][1,3]oxazol]-3′-one], the EC50 is 21 nM.

For the molecule `COc1cc(OC2CC3(C2)O[C@@H]2CC[C@@H](c4ccccc4)N2C3=O)ccc1F` (stereo partly drawn) [Example 8.18, (5′S,7a′R)-3-(4-fluoro-3-methoxyphenoxy)-5′-phenyltetrahydro-3′H-spiro[cyclobutane-1,2′-pyrrolo[2,1-b][1,3]oxazol]-3′-one], the EC50 is 21 nM.

For `O=C1N2C(CC[C@H]2c2cnccn2)OC12CC(OCc1cccc3nccn13)C2` (stereo partly drawn) [Example 18.36, (5′S)-3-[(imidazo[1,2-a]pyridin-5-yl)methoxy]-5′-(pyrazin-2-yl)tetrahydro-3′H-spiro[cyclobutane-1,2′-pyrrolo[2,1-b][1,3]oxazol]-3′-one], the EC50 was 28 nM.

With `N#Cc1cc(F)cc([C@@H]2CC[C@H]3O[C@]4(C[C@H](Oc5cc(C#N)ncn5)C4)C(=O)N32)c1` [Example 9.44, 6-(((5′S,7a′R)-5′-(3-cyano-5-fluorophenyl)-3′-oxotetrahydro-3′H-spiro[cyclobutane-1,2′-pyrrolo[2,1-b]oxazol]-3-yl)oxy)pyrimidine-4-carbonitrile], the EC50 amounted to 28 nM.

`O=C1N2[C@@H](CC[C@H]2c2ccc(F)cc2)O[C@]12C[C@H](Oc1nccc3nccn13)C2` [Example 9.34, (1r,3R,5′S,7a′R)-5′-(4-fluorophenyl)-3-[(imidazo[1,2-c]pyrimidin-5-yl)oxy]tetrahydro-3′H-spiro[cyclobutane-1,2′-pyrrolo[2,1-b][1,3]oxazol]-3′-one]: the EC50 was found to be 19 nM.

Take `O=C1N2[C@@H](CC[C@H]2c2ccc(F)cc2)OC12CC(OCc1ccncc1)C2` (stereo partly drawn) [Example 9.61, (5′S,7a′R)-5′-(4-fluorophenyl)-3-[(pyridin-4-yl)methoxy]tetrahydro-3′H-spiro[cyclobutane-1,2′-pyrrolo[2,1-b][1,3]oxazol]-3′-one]: the EC50 is 104 nM.

For the molecule `O=C1N2[C@@H](CC[C@H]2c2cnccn2)OC12CC(OCc1ccccc1)C2` (stereo partly drawn) [Example 4.2, ((1s),3R,5′S,7a′R)-3-(benzyloxy)-5′-(pyrazin-2-yl)tetrahydro-3′H-spiro[cyclobutane-1,2′-pyrrolo[2,1-b]oxazol]-3′-one], the EC50 is 24 nM.

On to `CC1(Oc2cc(C#N)ncn2)CC2(C1)O[C@@H]1CC[C@@H](c3cc(F)cc(F)c3)N1C2=O` (stereo partly drawn) [Example 5.1, 6-(((5′S,7a′R)-5′-(3,5-difluorophenyl)-3-methyl-3′-oxotetrahydro-3′H-spiro[cyclobutane-1,2′-pyrrolo[2,1-b]oxazol]-3-yl)oxy)pyrimidine-4-carbonitrile], for which the EC50 was 57 nM.

`CC(OC1CC2(C1)O[C@@H]1CC[C@@H](c3cc(F)cc(F)c3)N1C2=O)c1ncccc1F` (single isomer, unassigned) [Example 12.5, (1R or S,3S or r,5′S,7a′R)-5′-(3,5-difluorophenyl)-3-((S or R)-1-(3-fluoropyridin-2-yl)ethoxy)tetrahydro-3′H-spiro[cyclobutane-1,2′-pyrrolo[2,1-b]oxazol]-3′-one]: the EC50 was found to be 305 nM.

In the case of `O=C1N2[C@@H](CC[C@H]2c2cc(F)cc(F)c2)O[C@]12C[C@H](Oc1cc(-n3cc(C(F)F)cn3)ncn1)C2` [Example 9.56, (5′S,7a′R)-3-((6-(4-(difluoromethyl)-1H-pyrazol-1-yl)pyrimidin-4-yl)oxy)-5′-(3,5-difluorophenyl)tetrahydro-3′H-spiro[cyclobutane-1,2′-pyrrolo[2,1-b]oxazol]-3′-one], the EC50 is 18 nM.

Consider `CC(OC1CC2(C1)O[C@@H]1CC[C@@H](c3cc(F)cc(F)c3)N1C2=O)c1ccccc1` (single isomer, unassigned) [Example 15.1, ((1S or R),3R,5′S,7a′R)-5′-(3,5-difluorophenyl)-3-((S or R)-1-phenylethoxy)tetrahydro-3′H-spiro[cyclobutane-1,2′-pyrrolo[2,1-b]oxazol]-3′-one], for which the EC50 came out at 284 nM.

Regarding `O=C1N2C(CC[C@H]2c2cnccn2)OC12CC(OCc1cc(Cl)ccc1-c1cnco1)C2` (stereo partly drawn) [Example 18.33, (5′S)-3-{[5-chloro-2-(1,3-oxazol-5-yl)phenyl]methoxy}-5′-(pyrazin-2-yl)tetrahydro-3′H-spiro[cyclobutane-1,2′-pyrrolo[2,1-b][1,3]oxazol]-3′-one], the EC50 was determined as 43 nM.

Turning to `COCCOc1ccc(COC2CC3(C2)OC2CC[C@@H](c4cnccn4)N2C3=O)cc1` (stereo partly drawn) [Example 18.99, (5′S)-3-{[4-(2-methoxyethoxy)phenyl]methoxy}-5′-(pyrazin-2-yl)tetrahydro-3′H-spiro[cyclobutane-1,2′-pyrrolo[2,1-b][1,3]oxazol]-3′-one], the EC50 was found to be 205 nM.

Consider `O=C1N2[C@@H](CC[C@H]2c2ccc(F)cc2)O[C@]12C[C@H](Oc1ccnn3cccc13)C2` [Example 8.22, (1r,3R,5′S,7a′R)-5′-(4-fluorophenyl)-3-(pyrrolo[1,2-b]pyridazin-4-yloxy)tetrahydro-3′H-spiro[cyclobutane-1,2′-pyrrolo[2,1-b]oxazol]-3′-one], for which the EC50 turned out to be 29 nM.

For the molecule `N#Cc1ccc2c(O[C@H]3C[C@@]4(C3)O[C@@H]3CC[C@@H](c5cc(F)cc(F)c5)N3C4=O)ncnn12` [Example 11.2, 4-(((1r,3R,5′S,7a′R)-5′-(3,5-difluorophenyl)-3′-oxotetrahydro-3′H-spiro[cyclobutane-1,2′-pyrrolo[2,1-b]oxazol]-3-yl)oxy)pyrrolo[2,1-f][1,2,4]triazine-7-carbonitrile], the EC50 came to 16 nM.

Consider `O=C1N2[C@@H](CC[C@H]2c2cnccn2)OC12CC(Oc1cc(F)ccc1F)C2` (stereo partly drawn) [Example 12.6, (5′S,7a′R)-3-(2,5-difluorophenoxy)-5′-(pyrazin-2-yl)tetrahydro-3′H-spiro[cyclobutane-1,2′-pyrrolo[2,1-b][1,3]oxazol]-3′-one], for which the EC50 is 16 nM.

With `O=C1N2C(CC[C@H]2c2cnccn2)OC12CC(OCc1ccnc3ccnn13)C2` (stereo partly drawn) [Example 18.31, (5′S)-5′-(pyrazin-2-yl)-3-[(pyrazolo[1,5-a]pyrimidin-7-yl)methoxy]tetrahydro-3′H-spiro[cyclobutane-1,2′-pyrrolo[2,1-b][1,3]oxazol]-3′-one], the EC50 was found to be 428 nM.

These data come from patent US20250154173A1 (Merck Sharp & Dohme LLC, priority 2023, published 2025).
